{"source": "patent US5639950A", "about": "“Nucleotide sequence encoding for bifunctional enzyme for proline production” (The Ohio State University Research Foundation, priority 1994, dated 1997)", "key": {"[1]": {"target": "mutant E. coli gamma-GK encoded by the proB74 allele (Escherichia coli, UniProt P0A7B5, D107N)", "sequence (P0A7B5 whole entry D107N)": "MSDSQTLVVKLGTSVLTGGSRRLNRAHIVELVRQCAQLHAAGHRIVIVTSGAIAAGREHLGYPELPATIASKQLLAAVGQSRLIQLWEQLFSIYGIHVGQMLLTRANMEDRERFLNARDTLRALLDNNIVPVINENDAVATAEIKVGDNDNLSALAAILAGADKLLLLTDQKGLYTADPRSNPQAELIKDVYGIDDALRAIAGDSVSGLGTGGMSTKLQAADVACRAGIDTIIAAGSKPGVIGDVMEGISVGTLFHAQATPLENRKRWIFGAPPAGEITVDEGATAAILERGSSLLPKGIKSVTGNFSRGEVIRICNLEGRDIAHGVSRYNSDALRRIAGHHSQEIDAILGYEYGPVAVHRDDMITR", "conditions": "proB74 mutant form of the bacterial enzyme", "protocol": "(§1) FIG. 3 is a graph illustrating feedback inhibition of delta^1 -pyrroline-5-carboxylate synthetase by proline. Ammonium sulfate-fractionated extracts from E. coli CSH26 (.circle-solid.), E. coli CSH26 harboring PVAB2 (.smallcircle.), the proB74 allele (.orgate.), and the wild-type proB allele (.quadrature.) were assayed for gamma-GK activity by the method of Hayzer and Leisinger, J. Gen. Microbiol., 118, 1980, pp. 287-293.\n(§2) P5CS has GSA dehydrogenase and gamma-GK activities, and the gamma-GK activity is feedback inhibited by proline. To confirm that the presently claimed sequence, PVAB2 of FIGS. 1A, 1B, 1C and 1D, encoded P5CS activity, ammonium sulfate-fractionated extracts of E. coli CSH26 and CSH26 harboring PVAB2 were assayed for GSA dehydrogenase-dependent gamma-GK enzyme activity. […] Because proline production is regulated by end-product inhibition of gamma-GK in bacteria, the plant enzyme P5CS was similarly subjected to feed-back control testing. […] The mutation responsible for the resistance to end-product inhibition of the gamma-GK in the proB 74 allele involves a substitution of an A for a G nucleotide, resulting in a change from aspartic acid to asparagine residue at position 107.\nE. coli CSH26 cells and CSH26 harboring different plasmids were grown aerobically at 37° C. for about 16 hours. […]"}, "[2]": {"test_system": "wild-type E. coli gamma-GK", "test": "biochemical", "conditions": "more sensitive than Vigna enzyme", "protocol": "as §1, §2\n(§3) E. coli CSH26 cells and CSH26 harboring different plasmids were grown aerobically at 37° C. for about 16 hours. The cells were harvested by centrifugation at 4,000× g for 10 minutes, and the cell paste resulting was suspended in 4 ml of buffer A (50 mM Tris-Hcl, 1 mM dithiothreitol) at […] Following sonication, (Benson Sonifier, Type 450) at 50 watts, the slurry was centrifuged at 4,000× g for 10 minutes and the supernatant fractionated by ammonium sulfate precipitation. For E. coli CSH26 containing PVAB2, the fraction precipitating between 0 and 30% saturation of ammonium sulfate was used for enzyme assay."}, "[3]": {"target": "T1, wild-type E. coli gamma-GK (Escherichia coli, UniProt P0A7B5)", "T1 construct": "made in house; host or cells: E. coli CSH26 harboring the wild-type proB allele (plasmid pDU1 from A. Dandekar); ammonium sulfate fraction 40-60%", "T1 sequence (P0A7B5 whole entry)": "as the sequence (P0A7B5 whole entry D107N) above, with N107D counted along it", "test": "biochemical", "protocol": "as §1, §2, §3"}, "[4]": {"target": "Vigna aconitifolia delta1-pyrroline-5-carboxylate synthetase (P5CS) (Vigna aconitifolia, UniProt P32296)", "sequence (P32296 whole entry)": "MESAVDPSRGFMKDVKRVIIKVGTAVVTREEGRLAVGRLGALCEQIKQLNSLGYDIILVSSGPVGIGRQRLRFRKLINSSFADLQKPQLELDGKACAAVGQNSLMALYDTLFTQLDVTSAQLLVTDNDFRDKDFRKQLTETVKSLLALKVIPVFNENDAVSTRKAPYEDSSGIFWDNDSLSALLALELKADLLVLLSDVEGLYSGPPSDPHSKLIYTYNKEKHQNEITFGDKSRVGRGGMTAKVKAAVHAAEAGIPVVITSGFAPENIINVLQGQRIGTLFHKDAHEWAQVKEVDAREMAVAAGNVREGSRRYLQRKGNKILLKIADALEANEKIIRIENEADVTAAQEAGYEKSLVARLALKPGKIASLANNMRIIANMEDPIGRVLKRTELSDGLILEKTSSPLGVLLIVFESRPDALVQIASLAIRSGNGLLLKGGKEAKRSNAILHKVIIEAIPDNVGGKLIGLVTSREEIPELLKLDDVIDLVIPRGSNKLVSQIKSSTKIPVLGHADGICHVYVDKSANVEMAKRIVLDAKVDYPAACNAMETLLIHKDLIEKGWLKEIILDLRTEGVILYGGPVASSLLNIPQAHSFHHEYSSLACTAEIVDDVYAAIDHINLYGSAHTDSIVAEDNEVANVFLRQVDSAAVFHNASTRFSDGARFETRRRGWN", "test": "biochemical", "protocol": "as §1, §2, §3"}}}
{"smiles": "O=C(O)[C@@H]1CCCN1", "note": "[proline]", "values": [{"measurement": "sensitivity to end product (proline) inhibition, fold less sensitive", "setting": "[1]", "result": "approximately 200 fold"}, {"measurement": "sensitivity to proline of wild-type E. coli gamma-GK relative to the Vigna enzyme", "setting": "[2]", "result": 30, "unit": "times"}, {"measurement": "IC50", "setting": "[3]", "result": 0.2, "unit": "mM"}, {"measurement": "IC50", "setting": "[4]", "result": 6, "unit": "mM"}]}
